The results in this text go back to US11814341B2, “Non-peptidic cell-penetrating motifs” (Ohio State Innovation Foundation, priority 2018, dated 2023).

The subject of series [1] is HeLa cells. Description: MTT viability assay, anti-cancer activity of Hsp90 inhibitors. The format is cell-based. The following applies: 24 h. For orientation: Tetrazolium assays rely on reduction of a dye to a coloured formazan, in cell work by metabolically active cells.
The subject of series [2] is HeLa cells. Kind of series: JC-10 mitochondrial membrane potential assay. The conditions noted are these: 20 μM, 24 h; above the normal value.
Description: Procedure: Mitochondria membrane potential assay. Experiments were carried out by using JC-10 Mitochondrial Membrane Potential Assay kit (Abcam, ab112134) according to the manufacturer's manual. Briefly, HeLa cells (2×10^4 cells/well) were seeded in a 96-well plate (black wall clear bottom) in 90 μL of DMEM containing 10% FBS and 1% penicillin/streptomycin and allowed to attach overnight. […] Without washing, cells were treated with 50 μL of a JC-10 dye solution (30 μM in buffer A) for 60 min. Fifty μL of buffer B was added and the fluorescence intensities at Ex/Em=490/520 nm and 540/590 nm were recorded on a microplate reader (Infinite M1000Pro).
CPM1-3 was next tested for a potential effect on mitochondrial membrane potential, a key indicator of cell health or injury. HeLa cells untreated or treated with CPM were labeled with JC-10, a dye molecule which emits green fluorescence inside the cytosol but red fluorescence inside the mitochondria. The ratio of green/red fluorescence (F520/F590) provides an indicator of the mitochondrial membrane potential.

Regarding `COC1=C2C[C@@H](C)C[C@H](OC)[C@H](O)[C@@H](C)/C=C(\C)[C@H](OC(N)=O)[C@@H](OC)/C=C\C=C(/C)C(=O)NC(=CC1=O)C2=O` [GA, geldanamycin], the “maximum reduction in HeLa cell viability” value with HeLa cells [1] (0-10 μM) is approximately 40%. Moreover, the “inhibitor concentration at which maximal inhibition was reached” value with HeLa cells [1] was 0.3 µM. “p-trifluoromethoxy carbonyl cyanide phenyl hydrazone [FCCP]”: the “increase in the F520/F590 ratio” value with HeLa cells [2] is “up to 7 fold”.
